Test [1] relates to HEC-1-A cell line. Nature of the test: Antioxidant activity assay (ROS by FACS). Type of test: cell-based, human. Here is the method: They were used in different concentrations (i.e. 40 nM, 80 nM, 170 nM and 340 nM, corresponding respectively to 9.4×10^−9 g/ml, 18×10^−9 g/ml, 40×10^−9 g/ml and 80×10^−9 g/ml).
(§1) HEC-1A cells were obtained by ATCC and culture following instructions of the provider.
(§2) HEC-1-A is an epithelial stabilized cell line isolated by H. Kuramoto from adenocarcinoma patient (21), which provide a valuable model to study endometrial epithelial cell in vitro (22).
Reactive Oxidative Substances (ROS) were measured by FACS as previously described by Italiano et al. (23) in two independent replicates.
(Flow cytometry measures light scatter and fluorescence of single cells or particles in a stream.)

Test [2] has as its system HEC-1-A cell line. Nature of the test: Apoptosis assay (Propidium Iodide staining and FACS, sub-G1 events). Type of test: cell-based, human. Particulars: 24 hours. The method, then:
as §1, §2
The apoptosis (% cell death) of the endometrial cells is a physiological phenomenon generally observed at 10-20% rate during cell culture.
Apoptosis levels were assayed by Propidium Iodide staining and FACS analysis. Percentage of sub-G1 events is shown for one of two experiments performed.

Test [3] concerns endometrial tissue. The experiment in a line: In vitro culture of endometrium with melatonin, visualization of pinopodes by electron microscopy (SEM). Particulars: co-culture from 3 to 5 days of endometrial tissue with permanent addition of melatonin. Type of test: cell-based, human. Here is the method: The melatonin and the culture medium used are the same as those used for the in vivo study.
It has been used a field emission at high resolution electron microscope, FE HITACHI S 4000 model, operating at […].
Soon after retrieval from the patient, small pieces of endometrial tissue of about 1 mm in size have been placed in a fixing solution composed of paraformaldehyde 1% and glutaraldehyde 0.5% in buffer cacodylate 0.1 M pH 7.2 for 3 hours.
After this fixing the pieces are washed in PBS 20 min×3 times (1 hour total) and then the post fixing is carried out in a solution of osmium tetroxide 2% and potassium ferrocyanide 2.5%.
The preparation is kept in the dark for 3 hours to be then accurately washed rotating in PBS, with 4 replacements of 20 min each.
It follows dehydration of the samples of tissue with acetone in ascending succession with 3 replacements in 1 hour for each gradation 50%-70%-80%-90%-95% and 2 replacements with pure acetone. […]
The samples are fixed through a special electrically conductive double sided adhesive and for their arrangement two very thin needles are used and the preparation is ready to be observed with scanning electron microscope (SEM). […]

Test [4] has as its system Ishikawa cells. As to conditions: effect produced through MT2 receptors; reference (7); cited from earlier work.
The subject of test [5] is patients subjected to assisted reproduction. Nature of the test: Clinical study 2: single centre study, endometrial washing with melatonin in sterile physiological solution. Type of test: in vivo, human. From the text:
(§3) Said culture medium is normally used to improve cleavage, differentiation and expansion in vitro of blastocyst. The medium contains D-glucose, all the 20 essential L-amino acids, L-taurine, Gentamicin, human serum albumin, calcium lactate, calcium pantothenate; sodium chloride, sodium bicarbonate and sodium pyruvate; potassium chloride, potassium phosphate; magnesium chloride, magnesium sulfate; purified water. Further characteristics of the culture medium: • pH: 7.5-7.8 (use of bicarbonate buffer) • Osmolarity: 280-290 mOsm/kg • Endotoxins: <0.4 EU/ml • MEA: ≥80% • 2) physiological solution (Clinical Trial 2)
Restricted criteria of inclusion have been used for selecting the patient population involved in the studies: • 3) age ≥20 and <44 years • 4) body mass index (BMI) ≥20 and ≤28 kg/m^2 • 5) Basal FSH≤19 UI/l • 6) Male and female factors
The second clinical study with a single prospective centre involved 64 patients in the group of control and 92 patients in the group of study.
In the case of the physiological solution, the catheter can be pre-filled with physiological solution supplemented with melatonin.
The catheter has been introduced in the internal uterine orifice with the same steps through which the operator carries out the conventional embryo-transfer (ET).
The single centre study involved 64 patients in the group of control and 92 patients in the group of study.
The primary endpoint of the study is the rate of clinical pregnancies (fetal heart) due to embryonic transfer (ET); the secondary endpoint is the rate of ongoing pregnancies and aborts.

The test system of test [6] is patients subjected to assisted fertilization. Nature of the test: Clinical study 1: multi-centre study, endometrial irrigation with melatonin in culture medium at oocyte retrieval. The class given is in vivo, human.
From the text: as §3
In the logistic regression, OR corresponds to the antilogarithm on a natural basis of the regression coefficient β associated with each covariate in the regression model.
The value thus calculated expresses therefore the advantage obtained through each procedure, irrespective of the other conditions.
The two-tailed confidence intervals at 95% (IF95%) of the OR have been calculated through the formula of […]
For the latter, the CI (confidence interval or trust interval) has been calculated through statistical analysis (IMPRUN. TXT) of linear regression with more variables of 95%.

Where [7] appears, read: 170 nM (40 ng/ml) compound, H2O2 200 mcg/ml.
The mark [8] stands for this setting: number of patients out of 92 ET.

Consider `COc1cc2c(CCNC(C)=O)c[nH]c2cc1O` [6-hydroxy-melatonin, 6-hydroxymelatonin], for which the “protection of cell line from oxidation (ROS, FACS)” value (from here on “protection of cell line”) in test [1] (setting [7]) is recorded as “does not”. Further, the “anti-oxidative effect (ROS, FACS)” value in test [1] (dose increased up to 340 nM, H2O2 200 mcg/ml, data not shown) is “anti-oxidative effect of this analogue is reached”. For the same compound, in test [2] (up to concentration of 170 nM), the “effect on apoptosis (% cell death, sub-G1)” value is “no effect on apoptosis”.

For `COc1ccc2cccc(CCNC(C)=O)c2c1` [agomelatine], the “protection of cell line” value in test [1] (setting [7]) is “continued to protect cell line from oxidation”. In addition, the “effect on apoptosis (% cell death, sub-G1)” value in test [2] (at 170 and 340 nM) was “protective effect”.

`COc1ccc2[nH]cc(CCNC(C)=O)c2c1` [melatonin, N-acetyl-5-methoxytryptamine]: the “pinopodes (SEM) with respect to the culture of control” value in test [3] was “unquestionable increase of pinopodes”. Besides, the “proliferation of atypical endometrial cells (Ishikawa)” value in test [4] is “inhibits proliferation”. For the same compound, in test [5] (endometrial washing with solutions containing melatonin, infertile female population), the “rate of clinical pregnancies and ongoing pregnancies vs the group of control” value is “double”. In test [5] (group of study), this compound registered an Aborts of 11.8%. For the same compound, in test [5] (group of study, 92 ET), the “BHCG Positive (on total of ET)” value stood at 44.6% and the “rate of ongoing pregnancies (Ongoing Pregnancy/ET)” value was 32.6%. Also, the “rate of clinical pregnancies (Clinical Pregnancy/ET)” value in test [5] (group of study, 92 ET, melatonin 10×10^−9 g/ml in physiological solution) is listed as 37%. Further, in test [5] (setting [8]), the “BHCG Positive (on total of ET), No” value is on record as 41; the “Clinical Pregnancy/ET, No” value amounted to 34; the “Ongoing Pregnancy/ET, No” value worked out at 30. The “Aborts, No” value in test [5] (number of patients, group of study) came out at 4. In addition, the “number of pregnancies with respect to the other two groups” value in test [6] (irrigation or washing with melatonin vs physiological solution and no irrigation) is “double the number of pregnancies”. In addition, the “result of endometrial irrigation at lower concentration” value in test [6] (preceding studies with one third and the half of the final concentration 10×10^−9 g/ml, not shown data) was “without giving the same results”. In test [1] (170 nM (40 ng/ml) compound, H2O2 20 mcg/ml), the “anti-oxidative effect (ROS, FACS)” value is “same anti-oxidative effect”. The “protection of cell line” value in test [1] (setting [7]) is “continued to protect cell line from oxidation”. Besides, the “effect on apoptosis (% cell death, sub-G1)” value in test [2] (all the concentrations tested (80, 170, 340 nM)) is on record as “protective effect on apoptosis”.

Source of the values: patent publication US20180303798A1 (Ares Trading S.A., priority 2012, published 2018).
